Assay results: ChEMBL document CHEMBL1201861, “Genomics of Drug Sensitity in Cancer screening data, Wellcome Trust Sanger Institute”
pIC50: −log10 of the molar value.

Tests used:
Test in all cases: cells
COLO-800 = format: functional, cell-based, Homo sapiens; conditions: Homo sapiens, COLO-800;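 also: growth inhibition of COLO-800 cells, read out with a cell viability assay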
Description: SANGER: Inhibition of human COLO-800 cell growth in a cell viability assay.

DK-MG = format: functional, cell-based, Homo sapiens; conditions: Homo sapiens, DK-MG;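 also: growth inhibition of DK-MG cells, read out with a cell viability assay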
Description: SANGER: Inhibition of human DK-MG cell growth in a cell viability assay.

EFO-27 = format: functional, cell-based, Homo sapiens; conditions: Homo sapiens, EFO-27;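 also: growth inhibition of EFO-27 cells, read out with a cell viability assay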
Description: SANGER: Inhibition of human EFO-27 cell growth in a cell viability assay.

GOTO = format: functional, cell-based, Homo sapiens; conditions: Homo sapiens, GOTO;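 also: growth inhibition of GOTO cells, read out by a cell viability assay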
Description: SANGER: Inhibition of human GOTO cell growth in a cell viability assay.

HAL-01 = format: functional, cell-based; conditions: Homo sapiens;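 also: growth inhibition of human HAL-01 cells, read out with a cell viability assay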
Description: SANGER: Inhibition of human HAL-01 cell growth in a cell viability assay.

HCC1569 = format: functional, cell-based, Homo sapiens; conditions: Homo sapiens, HCC1569;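 also: growth inhibition of human HCC1569 cells, read out with a cell viability assay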
Description: SANGER: Inhibition of human HCC1569 cell growth in a cell viability assay.

HCT-116 = format: functional, cell-based, Homo sapiens; conditions: Homo sapiens, HCT-116
Description: SANGER: Inhibition of human HCT-116 cell growth in a cell viability assay.

HGC-27 = format: functional, cell-based, Homo sapiens; conditions: Homo sapiens, HGC-27;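 also: growth inhibition of human HGC-27 cells, read out in a cell viability assay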
Description: SANGER: Inhibition of human HGC-27 cell growth in a cell viability assay.

IGR-1 = format: functional, cell-based, Homo sapiens; conditions: Homo sapiens, IGR-1;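 also: growth inhibition of human IGR-1 cells, read out with a cell viability assay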
Description: SANGER: Inhibition of human IGR-1 cell growth in a cell viability assay.

IGROV-1 = format: functional, cell-based, Homo sapiens; conditions: Homo sapiens, IGROV-1;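 also: reduction of IGROV-1 cell growth, read out with a viability assay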
Description: SANGER: Inhibition of human IGROV-1 cell growth in a cell viability assay.

IST-SL1 = format: functional, cell-based, Homo sapiens; conditions: Homo sapiens, IST-SL1;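 also: growth inhibition of human IST-SL1 cells, read out with a cell viability assay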
Description: SANGER: Inhibition of human IST-SL1 cell growth in a cell viability assay.

K562 = format: functional, cell-based; conditions: Homo sapiens
Description: SANGER: Inhibition of human K-562 cell growth in a cell viability assay.

KARPAS-45 = format: functional, cell-based; conditions: Homo sapiens;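 also: inhibition of cell line growth, read out through a viability assay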
Description: SANGER: Inhibition of human KARPAS-45 cell growth in a cell viability assay.

KLE = format: functional, cell-based, Homo sapiens; conditions: Homo sapiens, KLE;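 also: growth inhibition of human KLE cells, read out with a cell viability assay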
Description: SANGER: Inhibition of human KLE cell growth in a cell viability assay.

KP-4 = format: functional, cell-based, Homo sapiens; conditions: Homo sapiens, KP-4; read-out: IC50;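 also: human KP-4 cells, with growth inhibition read out through a cell viability assay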
Description: SANGER: Inhibition of human KP-4 cell growth in a cell viability assay.

LB771-HNC = format: functional, cell-based, Homo sapiens; conditions: Homo sapiens, LB771-HNC;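 also: growth inhibition of LB771-HNC human cells, read out with a cell viability assay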
Description: SANGER: Inhibition of human LB771-HNC cell growth in a cell viability assay.

LOX IMVI = format: functional, cell-based; conditions: Homo sapiens
Description: SANGER: Inhibition of human LOXIMVI cell growth in a cell viability assay.

LU-134-A = format: functional, cell-based; conditions: Homo sapiens
Description: SANGER: Inhibition of human LU-134-A cell growth in a cell viability assay.

LoVo = format: functional, cell-based; conditions: Homo sapiens;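 also: growth inhibition of human LoVo cells, read out with a cell viability assay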
Description: SANGER: Inhibition of human LoVo cell growth in a cell viability assay.

MCF7 = format: functional, cell-based, Homo sapiens; conditions: Homo sapiens, MCF7;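 also: growth inhibition of human MCF7 cells, read out with a cell viability assay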
Description: SANGER: Inhibition of human MCF7 cell growth in a cell viability assay.

MHH-PREB-1 = format: functional, cell-based; conditions: Homo sapiens;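 also: cell viability assay measuring inhibition of proliferation of human MHH-PREB-1 cells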
Description: SANGER: Inhibition of human MHH-PREB-1 cell growth in a cell viability assay.

MN-60 = format: functional, cell-based; conditions: Homo sapiens;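 also: growth inhibition of the MN-60 cell line, determined with a cell viability assay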
Description: SANGER: Inhibition of human MN-60 cell growth in a cell viability assay.

MS-1 = format: functional, cell-based; conditions: Homo sapiens;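 also: growth inhibition of MS-1 cells, read out by cell viability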
Description: SANGER: Inhibition of human MS-1 cell growth in a cell viability assay.

NCI-H1648 = format: functional, cell-based, Homo sapiens; conditions: Homo sapiens, NCI-H1648;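 also: cell viability assay measuring inhibition of NCI-H1648 cell growth, from the Sanger screening data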
Description: SANGER: Inhibition of human NCI-H1648 cell growth in a cell viability assay.

NCI-H1770 = format: functional, cell-based; conditions: Homo sapiens;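 also: growth inhibition of NCI-H1770 cells determined with a viability readout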
Description: SANGER: Inhibition of human NCI-H1770 cell growth in a cell viability assay.

NCI-H2228 = format: functional, cell-based, Homo sapiens; conditions: Homo sapiens, NCI-H2228;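 also: growth inhibition of human NCI-H2228 cells, read out by a cell viability assay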
Description: SANGER: Inhibition of human NCI-H2228 cell growth in a cell viability assay.

NCI-H520 = format: functional, cell-based, Homo sapiens; conditions: Homo sapiens, NCI-H520;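 also: growth inhibition of NCI-H520 cells, measured by a cell viability assay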
Description: SANGER: Inhibition of human NCI-H520 cell growth in a cell viability assay.

NCI-H596 = format: functional, cell-based, Homo sapiens; conditions: Homo sapiens, NCI-H596;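 also: growth inhibition of NCI-H596 cells, read out with a cell viability assay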
Description: SANGER: Inhibition of human NCI-H596 cell growth in a cell viability assay.

NCI-H810 = format: functional, cell-based, Homo sapiens; conditions: Homo sapiens, NCI-H810;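 also: IC50 reflects inhibition of cancer cell line growth, read out with a cell viability assay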
Description: SANGER: Inhibition of human NCI-H810 cell growth in a cell viability assay.

SNU-5 = format: functional, cell-based; conditions: Homo sapiens;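 also: cell viability readout used to measure growth inhibition in human NCI-SNU-5 cells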
Description: SANGER: Inhibition of human NCI-SNU-5 cell growth in a cell viability assay.

NTERA-2-cl-D1 = format: functional, cell-based, Homo sapiens; conditions: Homo sapiens, NTERA-2-cl-D1;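 also: inhibition of cell growth, measured with a cell viability assay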
Description: SANGER: Inhibition of human NTERA-S-cl-D1 cell growth in a cell viability assay.

NY = format: functional, cell-based, Homo sapiens; conditions: Homo sapiens, NY
Description: SANGER: Inhibition of human NY cell growth in a cell viability assay.

OE33 = format: functional, cell-based, Homo sapiens; conditions: Homo sapiens, OE33;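 also: growth inhibition of human OE33 cells, measured by a cell viability assay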
Description: SANGER: Inhibition of human OE33 cell growth in a cell viability assay.

OVCAR-3 = format: functional, cell-based, Homo sapiens; conditions: Homo sapiens, OVCAR-3;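 also: growth inhibition of human OVCAR-3 cells, determined by a cell viability assay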
Description: SANGER: Inhibition of human OVCAR-3 cell growth in a cell viability assay.

RO82-W-1 = format: functional, cell-based, Homo sapiens; conditions: Homo sapiens, RO82-W-1;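 also: growth inhibition of human RO82-W-1 cells, measured with a cell viability assay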
Description: SANGER: Inhibition of human RO82-W-1 cell growth in a cell viability assay.

RPMI-8866 = format: functional, cell-based; conditions: Homo sapiens
Description: SANGER: Inhibition of human RPMI-8866 cell growth in a cell viability assay.

SCC-9 = format: functional, cell-based, Homo sapiens; conditions: Homo sapiens, SCC-9;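 also: Read-out is a cell viability assay, with values giving inhibition of cell growth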
Description: SANGER: Inhibition of human SCC-9 cell growth in a cell viability assay.

SK-NEP-1 = format: functional, cell-based; conditions: Homo sapiens;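 also: growth inhibition of human SK-NEP-1 cells, read out by a cell viability assay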
Description: SANGER: Inhibition of human SK-NEP-1 cell growth in a cell viability assay.

SN12C = format: functional, cell-based, Homo sapiens; conditions: Homo sapiens, SN12C;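 also: growth inhibition of human SN12C cells, measured by a cell viability assay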
Description: SANGER: Inhibition of human SN12C cell growth in a cell viability assay.

SNB-75 = format: functional, cell-based, Homo sapiens; conditions: Homo sapiens, SNB-75;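 also: cell viability assay measuring growth inhibition of human SNB-75 cells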
Description: SANGER: Inhibition of human SNB75 cell growth in a cell viability assay.

A704 = format: functional, cell-based, Homo sapiens; conditions: Homo sapiens, A704;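 also: growth inhibition of human A704 cells, read out with a cell viability assay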
Description: SANGER: Inhibition of human A704 cell growth in a cell viability assay.

AGS = format: functional, cell-based, Homo sapiens; conditions: Homo sapiens, AGS;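 also: growth inhibition of AGS cells, determined with a cell viability assay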
Description: SANGER: Inhibition of human AGS cell growth in a cell viability assay.

ALL-PO = format: functional, cell-based; conditions: Homo sapiens;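 also: growth inhibition of ALL-PO cells, read out by a cell viability assay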
Description: SANGER: Inhibition of human ALL-PO cell growth in a cell viability assay.

BEN = format: functional, cell-based, Homo sapiens; conditions: Homo sapiens, BEN;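 also: growth inhibition of the BEN cell line, read out with a cell viability assay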
Description: SANGER: Inhibition of human BEN cell growth in a cell viability assay.

CAL-120 = format: functional, cell-based, Homo sapiens; conditions: Homo sapiens, CAL-120;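 also: cell growth inhibition, read out as cell viability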
Description: SANGER: Inhibition of human CAL-120 cell growth in a cell viability assay.

CAL-39 = format: functional, cell-based, Homo sapiens; conditions: Homo sapiens, CAL-39;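 also: cell viability assay measuring growth inhibition of CAL-39 cells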
Description: SANGER: Inhibition of human CAL-39 cell growth in a cell viability assay.

TK-10 = format: functional, cell-based, Homo sapiens; conditions: Homo sapiens, TK-10;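 also: growth inhibition of TK-10 cells, read out in a cell viability assay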
Description: SANGER: Inhibition of human TK10 cell growth in a cell viability assay.

U-266 = format: functional, cell-based; conditions: Homo sapiens
Description: SANGER: Inhibition of human U-266 cell growth in a cell viability assay.

UO-31 = format: functional, cell-based; conditions: Homo sapiens;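 also: cell viability assay measuring inhibition of cell growth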
Description: SANGER: Inhibition of human U031 cell growth in a cell viability assay.

VMRC-RCZ = format: functional, cell-based; conditions: Homo sapiens;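 also: growth inhibition measured with a cell viability assay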
Description: SANGER: Inhibition of human VMRC-RCZ cell growth in a cell viability assay.

CAS-1 = format: functional, cell-based, Homo sapiens; conditions: Homo sapiens, CAS-1;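 also: growth inhibition of CAS-1 cells, measured with a cell viability assay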
Description: SANGER: Inhibition of human CAS-1 cell growth in a cell viability assay.

COLO-678 = format: functional, cell-based, Homo sapiens; conditions: Homo sapiens, COLO-678
Description: SANGER: Inhibition of human COLO-678 cell growth in a cell viability assay.

**Q.** C=CCc1cccc(/C=N/NC(=O)CN2CCN(Cc3ccccc3)CC2)c1O [PAC-1] was tested. Which pIC50 (COLO-800) did it give?
**A.** < 5.59

**Q.** What about the pIC50 (DK-MG) of the same compound?
**A.** < 5.59

**Q.** What about the pIC50 (EFO-27) of the same compound?
**A.** < 5.59

**Q.** And the pIC50 (GOTO)?
**A.** < 5.59

**Q.** What about the pIC50 (HAL-01) of the same compound?
**A.** 6.10

**Q.** What about the pIC50 (HCC1569) of the same compound?
**A.** < 5.59

**Q.** What about the pIC50 (HCT-116) of the same compound?
**A.** < 5.59

**Q.** And the pIC50 (HGC-27)?
**A.** < 5.59

**Q.** And the pIC50 (IGR-1)?
**A.** < 5.59

**Q.** And the pIC50 (IGROV-1)?
**A.** 5.87

**Q.** And the pIC50 (IST-SL1)?
**A.** < 5.59

**Q.** And the pIC50 (K562)?
**A.** < 5.59

**Q.** What about the pIC50 (KARPAS-45) of the same compound?
**A.** < 5.59

**Q.** And the pIC50 (KLE)?
**A.** < 5.59

**Q.** And the pIC50 (KP-4)?
**A.** < 5.59

**Q.** And the pIC50 (LB771-HNC)?
**A.** < 5.59

**Q.** What about the pIC50 (LOX IMVI) of the same compound?
**A.** < 5.59

**Q.** What about the pIC50 (LU-134-A) of the same compound?
**A.** < 5.59

**Q.** And the pIC50 (LoVo)?
**A.** < 5.59

**Q.** What about the pIC50 (MCF7) of the same compound?
**A.** < 5.59

**Q.** And the pIC50 (MHH-PREB-1)?
**A.** < 5.59

**Q.** And the pIC50 (MN-60)?
**A.** < 5.59

**Q.** What about the pIC50 (MS-1) of the same compound?
**A.** < 5.59

**Q.** What about the pIC50 (NCI-H1648) of the same compound?
**A.** < 5.59

**Q.** And the pIC50 (NCI-H1770)?
**A.** < 5.59

**Q.** And the pIC50 (NCI-H2228)?
**A.** < 5.59

**Q.** And the pIC50 (NCI-H520)?
**A.** < 5.59

**Q.** And the pIC50 (NCI-H596)?
**A.** < 5.59

**Q.** And the pIC50 (NCI-H810)?
**A.** < 5.59

**Q.** What about the pIC50 (SNU-5) of the same compound?
**A.** < 5.59

**Q.** And the pIC50 (NTERA-2-cl-D1)?
**A.** < 5.59

**Q.** What about the pIC50 (NY) of the same compound?
**A.** < 5.59

**Q.** What about the pIC50 (OE33) of the same compound?
**A.** < 5.59

**Q.** And the pIC50 (OVCAR-3)?
**A.** < 5.59

**Q.** And the pIC50 (RO82-W-1)?
**A.** < 5.59

**Q.** What about the pIC50 (RPMI-8866) of the same compound?
**A.** < 5.59

**Q.** And the pIC50 (SCC-9)?
**A.** < 5.59

**Q.** And the pIC50 (SK-NEP-1)?
**A.** < 5.59

**Q.** What about the pIC50 (SN12C) of the same compound?
**A.** < 5.59

**Q.** What about the pIC50 (SNB-75) of the same compound?
**A.** < 5.59

**Q.** And the pIC50 (A704)?
**A.** < 5.59

**Q.** What about the pIC50 (AGS) of the same compound?
**A.** < 5.59

**Q.** What about the pIC50 (ALL-PO) of the same compound?
**A.** < 5.59

**Q.** And the pIC50 (BEN)?
**A.** < 5.59

**Q.** What about the pIC50 (CAL-120) of the same compound?
**A.** < 5.59

**Q.** What about the pIC50 (CAL-39) of the same compound?
**A.** < 5.59

**Q.** What about the pIC50 (TK-10) of the same compound?
**A.** < 5.59

**Q.** And the pIC50 (U-266)?
**A.** < 5.59

**Q.** And the pIC50 (UO-31)?
**A.** 5.82

**Q.** What about the pIC50 (VMRC-RCZ) of the same compound?
**A.** < 5.59

**Q.** What about the pIC50 (CAS-1) of the same compound?
**A.** < 5.59

**Q.** What about the pIC50 (COLO-678) of the same compound?
**A.** < 5.59
